The values that follow come from patent US20250066383A1, “PDE 7 MODULATOR COMPOUNDS” (Omeros Corporation, priority 2023, published 2025).

Structures are written as SMILES. pIC50: −log10 of the molar value.

In one experiment the target is PDE7A (Homo sapiens (Human), UniProt Q13946). Put plainly: PDE7A assay: inhibition of PDE7A hydrolysis of [3H]cAMP to [3H]AMP (scintillation proximity, yttrium silicate beads). The format is biochemical. The settings on record: 16 nM [3H]cAMP, 30° C., 20 minutes; read-out: PDE 7A IC50. The procedure: (§1) PDE7A and PDE7B Assay. Compounds were tested for their activity by measuring the inhibition of PDE7A or PDE7B hydrolysis of [3H]cAMP to [3H]AMP. Generally, eight dilutions of compound were assayed in 50 mM Tris-HCl pH 7.5, 8.3 mM MgCl2, 0.5 mg/mL BSA, 1.7 mM EGTA, 16 nM [3H]cAMP, and 1% DMSO. PDE7A or PDE7B (typically 1-5 ng/mL) (BPS BioSciences, CA) is added to initiate the reaction. The reaction was incubated at 30° C. for 20 minutes. PDE7A and PDE7B hydrolysis was terminated by the addition of yttrium silicate beads (GE Healthcare, RPNQ0150) and counted on a Wallac Microbeta scintillation counter, 1-2 hours following the addition of the beads. Data was analyzed using XLfit […] from which ICso values were obtained.
Chain of PDE7A (Q13946 whole entry): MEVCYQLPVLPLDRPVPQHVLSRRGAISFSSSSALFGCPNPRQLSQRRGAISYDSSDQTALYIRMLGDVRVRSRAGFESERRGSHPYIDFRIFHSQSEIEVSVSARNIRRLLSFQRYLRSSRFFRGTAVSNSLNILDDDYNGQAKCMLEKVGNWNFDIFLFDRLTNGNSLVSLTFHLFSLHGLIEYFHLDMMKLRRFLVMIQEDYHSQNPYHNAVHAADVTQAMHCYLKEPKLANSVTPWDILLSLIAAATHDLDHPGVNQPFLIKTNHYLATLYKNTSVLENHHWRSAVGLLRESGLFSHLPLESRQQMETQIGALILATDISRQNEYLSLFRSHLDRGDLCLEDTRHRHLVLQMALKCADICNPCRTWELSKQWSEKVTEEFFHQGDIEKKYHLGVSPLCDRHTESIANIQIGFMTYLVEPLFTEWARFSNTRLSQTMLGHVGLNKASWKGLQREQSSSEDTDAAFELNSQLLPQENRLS

The target in the next experiment is PDE7B (Homo sapiens (Human), UniProt Q9NP56). As to the kind of experiment: PDE7B assay: inhibition of PDE7B hydrolysis of [3H]cAMP to [3H]AMP (scintillation proximity, yttrium silicate beads). The format is biochemical. Conditions: 16 nM [3H]cAMP, 30° C., 20 minutes; read-out: PDE 7B IC50. The procedure:
as §1

Chain of PDE7B (Q9NP56 whole entry): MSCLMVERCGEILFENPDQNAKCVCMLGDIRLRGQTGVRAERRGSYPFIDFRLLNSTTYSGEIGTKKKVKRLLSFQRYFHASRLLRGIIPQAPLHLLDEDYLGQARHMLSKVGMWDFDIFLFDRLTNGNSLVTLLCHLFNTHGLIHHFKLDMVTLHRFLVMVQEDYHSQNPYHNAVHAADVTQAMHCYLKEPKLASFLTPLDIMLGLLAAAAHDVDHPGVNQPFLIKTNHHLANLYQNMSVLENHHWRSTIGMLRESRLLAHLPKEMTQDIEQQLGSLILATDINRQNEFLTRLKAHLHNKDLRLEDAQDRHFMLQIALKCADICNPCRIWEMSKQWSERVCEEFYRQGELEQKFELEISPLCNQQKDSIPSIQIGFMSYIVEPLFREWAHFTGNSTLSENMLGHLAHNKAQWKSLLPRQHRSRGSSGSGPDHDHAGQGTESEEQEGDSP

With `Cc1nn(-c2ccccc2Cl)c2sc(C(=O)N[C@H]3C[C@H](N4CCOCC4)C3)cc12` [Compound I-3, 1-(2-chlorophenyl)-3-methyl-N-((1r,3r)-3-morpholinocyclobut-yl)-1H-thieno[2,3-c] pyrazole-5-carbox-amide], the pIC50 at PDE7A is 7.52 to 8.00; on PDE7B it was 7.00 to 7.52.
Taken in the same sequence, the figures for `Cc1nn(C2CCC(F)(F)CC2)c2sc(C(=O)N[C@H]3CC[C@H](N4CCOCC4)CC3)cc12` [II-13, 1-(4,4-difluorocyclo-hexyl)-3-methyl-N-((1r,4r)-4-morpho-linocyclohexyl)-1H-thieno[2,3-c]pyrazole-5-carboxamide] were 7.52 to 8.00 and 7.52 to 8.00.
Taken in the same sequence, the figures for `Cc1nn(-c2ccccc2)c2sc(C(=O)N[C@H]3CC[C@H](N4CCOCC4)CC3)cc12` [Compound I-8, 3-methyl-N-((1r,4r)-4-morpholinocyclohex-yl)-1-phenyl-1H-thieno [2,3-c]pyrazole-5-carboxamide] were 6.30 to 7.00 and 6.30 to 7.00.
Taken in the same sequence, the figures for `CC(=O)N1CCN([C@H]2CC[C@H](NC(=O)c3cc4c(C)nn(-c5ccccc5Cl)c4s3)CC2)CC1` [Compound I-4, N-((1r,4r)-4-(4-acetyl-piperazin-1-yl)cyclo-hexyl)-1-(2-chloro-phenyl)-3-methyl-1H-thieno[2,3-c]pyrazole-5-carboxamide] were more than 8.00 and more than 8.00.
With `CC(=O)N1CCN([C@H]2CC[C@H](NC(=O)c3cc4c(C)nn(CC(C)(C)C)c4s3)CC2)CC1` [II-37, N-((1r,4r)-4-(4-acet-ylpiperazin-1-yl)-cyclohexyl)-3-meth-yl-1-neopentyl-1H-thieno[2,3-c]pyr-azole-5-carboxamide], the pIC50 on PDE7A and on PDE7B was more than 8.00 each time.
`Cc1nn(C2CCC(F)(F)CC2)c2sc(C(=O)N[C@H]3C[C@@H](N4CCC(F)(F)C4)C3)cc12` [II-39, 1-(4,4-difluorocyclo-hexyl)-N-((1s,3s)-3-(3,3-difluoropyrrol-idin-1-yl)cyclobutyl)-3-methyl-1H-thieno [2,3-c]pyrazole-5-carboxamide]: the pIC50 on PDE7A and on PDE7B was 7.00 to 7.52 throughout.
Turning to `Cc1nn(C2CCC(F)(F)CC2)c2sc(C(=O)N[C@H]3CC[C@H](N4CCC(F)(F)C4)CC3)cc12` [II-26, 1-(4,4-difluorocyclo-hexyl)-N-((1r,4r)-4-(3,3-difluoropyrrol-idin-1-yl)cyclohexyl)-3-methyl-1H-thieno [2,3-c]pyrazole-5-carboxamide], the pIC50 at PDE7A and at PDE7B was more than 8.00 throughout.
